# Like-named read-outs stand apart in the source and are kept apart here.
# Experiments:
# hACC2 = hACC2 (Homo sapiens, UniProt O00763); assay: In vitro ACC2 inhibition assay (ADP-Glo), human ACC2; assay type: biochemical
# Experimental: An exemplary procedure for the in vitro ACC inhibition assay, which can be used to determine the inhibitory action of compounds of the invention toward either human (hACC2) or fungal (fACC2) ACC2, follows. The ADP-Glo™ Kinase Assay kit from Promega was used. The ADP-Glo™ Kinase Assay is a luminescent ADP detection assay to measure enzymatic activity by quantifying the amount of ADP produced during an enzyme reaction. The assay is performed in two steps; first, after the enzyme reaction, an equal volume of ADP-Glo™ Reagent is added to terminate the reaction and deplete the remaining ATP. Second, the Kinase Detection Reagent is added to simultaneously convert ADP to ATP and allow the newly synthesized ATP to be measured using a luciferase/luciferin reaction. Luminescence can be correlated to ADP concentrations by using an ATP-to-ADP conversion curve. The detailed procedure is as follows. 50 μL of the compound being tested (600 μM in DMSO) was added to a 384-well dilution plate. The compound was diluted 1:3 in succession in DMSO for each row for 11 wells. 0.5 μL ACC2 working solution was added to 384-well white Optiplate assay plate. 0.5 μL diluted compound solution in each column from step 2 was added to assay plate, each row containing 2 replicates. For the last 2 rows, 0.5 μL negative control (DMSO) was added in one row and 0.5 μL positive control (compound I-97) in the other. The plates were incubated at room temperature for 15 minutes. 5 μL substrate working solution was added to each well to initiate reaction. Final ACC2 reaction concentrations consist of: 5 nM ACC2, 20 μM ATP, 20 μM acetyl-CoA, 12 mM NaHCO3, 0.01% Brij35, 2 mM DTT, 5% DMSO, test compound concentrations: 30 μM, 10 μM, 3.33 μM, 1.11 μM, 0.37 μM, 0.123 μM, 0.0411 μM, 0.0137 μM, 0.00457 μM, 0.00152 μM, and 0.00051 μM. Plates were incubated at room temperature for 60 minutes. 10 μL ADP glo reagent was added. Plates were incubated at room temperature for 40 minutes. 20 μL kinase detection reagent was added. Plates were incubated at room temperature for 40 minutes, and then read on a Perkin Elmer EnVision 2104 plate reader for luminescence as Relative Light Units (RLU).
# Data for each concentration, as well as the positive and negative controls, were averaged, and the standard deviation calculated. Percent inhibition was calculated by the formula: 100×(average negative control−compound)/(average negative control−average positive control). The IC50 for each compound was calculated by fitting the data with a non-linear regression equation: Y=Bottom+(Top−Bottom)/(1+10^((Log IC50−X)*HillSlope)), where X is the log of compound concentration and Y is percent inhibition.
# Botrtyis cinerea (Bc) = assay: Growth inhibition assay of fungal pathogens; assay type: cell-based; conditions: 48 h, read-out: Concentration at 90% Inhibition Bc
# Experimental: (§1) Compounds of the present invention were evaluated in a growth inhibition assay to determine the ability to control the growth of fungal pathogens, such as Botrtyis cinerea (Bc), Collectotrichum graminicola (Cg), Diplodia maydis (Dm), Fusarium moniliforme (Fm), Fusarium virguhforme (Fv), Phytophthora capsici (Pc), Rhizoctonia solani (Rs), and Septoria tritici (St). Compounds to be tested were dissolved in DMSO at 2.5 mg/ml to produce compound stock solutions (“stocks”). Stocks were diluted with DMSO by a five-fold dilution in a 96-well stock plate, and two sets of final concentrations of 50, 10, and 2 ppm or 2, 0.4, and 0.08 ppm were obtained in vitro. A set of positive controls was also prepared, with various concentrations of Soraphen (2, 0.4, and 0.08 ppm), Metalaxyl (1.1, 0.22, and 0.04 ppm), and Metconazole (2, 0.4, and 0.08 ppm or 0.2, 0.04, and 0.008 ppm) after the five-fold dilutions. Negative controls on each plate included 2% DMSO, water, and a blank (media+2% DMSO). Fungal spores were isolated from previously sub-cultured plates of Botrtyis cinerea (Bc), Collectotrichum graminicola (Cg), Diplodia maydis (Dm), Fusarium moniliforme (Fm), Fusarium virguliforme (Fv), Phytophthora capsici (Pc), and Septoria tritici (St). The isolated spores were diluted to individual concentrations with a 17% V8 liquid media. For Rhizoctonia solani (Rs) and Pythium irregulare, 1.5 mm mycelial plugs were used in place of spores and ¼ Potato Dextrose Broth (PDB) was used for dilution. The spore concentrations and plug sizes were based on growth curves generated at 48 hours for each pathogen. In a second 96-well plate, the spores or mycelial plugs, media, diluted compound solutions, and controls were combined. Once the compound was added, a true final concentration of compound in each well was measured by an OD600 reading, which adjusted for any compound precipitation that might have occurred in the well. Plate readings were repeated at both 24 and 48 hours. The blank negative control was used as a background subtraction. Additional visual ratings were performed at both 24 and 48 hours for checking on precipitation and confirming efficacy. Visual and OD600 ratings of the compounds at 48 hours were compared to the 2% DMSO negative control, and the percent of pathogen growth inhibition was determined based on those values.
# [1] = test system: Collectotrichum graminicola (Cg); assay: Growth inhibition assay of fungal pathogens; assay type: cell-based; conditions: 48 h, read-out: Concentration at 90% Inhibition Cg
# Experimental: as §1
# Diplodia maydis (Dm) = assay: Growth inhibition assay of fungal pathogens; assay type: cell-based; conditions: Stenocarpella maydis, 48 h, read-out: Concentration at 90% Inhibition Dm
# Experimental: as §1
# [2] = test system: Fusarium moniliforme (Fm); assay: Growth inhibition assay of fungal pathogens; assay type: cell-based; conditions: Fusarium verticillioides, 48 h, read-out: Concentration at 90% Inhibition Fm
# Experimental: as §1
# [3] = test system: Fusarium virguliforme (Fv); assay: Growth inhibition assay of fungal pathogens; assay type: cell-based; conditions: 48 h, read-out: Concentration at 90% Inhibition Fv
# Experimental: as §1
# [4] = test system: Phytophthora capsici (Pc); assay: Growth inhibition assay of fungal pathogens; assay type: cell-based; conditions: 48 h, read-out: Concentration at 90% Inhibition Pc
# Experimental: as §1
# Rhizoctonia solani (Rs) = assay: Growth inhibition assay of fungal pathogens; assay type: cell-based; conditions: 48 h, read-out: Concentration at 90% Inhibition Rs
# Experimental: as §1
# Septoria tritici (St) = assay: Growth inhibition assay of fungal pathogens; assay type: cell-based; conditions: Zymoseptoria tritici, 48 h, read-out: Concentration at 90% Inhibition St
# Experimental: as §1
# Sequence of hACC2 (O00763 whole entry): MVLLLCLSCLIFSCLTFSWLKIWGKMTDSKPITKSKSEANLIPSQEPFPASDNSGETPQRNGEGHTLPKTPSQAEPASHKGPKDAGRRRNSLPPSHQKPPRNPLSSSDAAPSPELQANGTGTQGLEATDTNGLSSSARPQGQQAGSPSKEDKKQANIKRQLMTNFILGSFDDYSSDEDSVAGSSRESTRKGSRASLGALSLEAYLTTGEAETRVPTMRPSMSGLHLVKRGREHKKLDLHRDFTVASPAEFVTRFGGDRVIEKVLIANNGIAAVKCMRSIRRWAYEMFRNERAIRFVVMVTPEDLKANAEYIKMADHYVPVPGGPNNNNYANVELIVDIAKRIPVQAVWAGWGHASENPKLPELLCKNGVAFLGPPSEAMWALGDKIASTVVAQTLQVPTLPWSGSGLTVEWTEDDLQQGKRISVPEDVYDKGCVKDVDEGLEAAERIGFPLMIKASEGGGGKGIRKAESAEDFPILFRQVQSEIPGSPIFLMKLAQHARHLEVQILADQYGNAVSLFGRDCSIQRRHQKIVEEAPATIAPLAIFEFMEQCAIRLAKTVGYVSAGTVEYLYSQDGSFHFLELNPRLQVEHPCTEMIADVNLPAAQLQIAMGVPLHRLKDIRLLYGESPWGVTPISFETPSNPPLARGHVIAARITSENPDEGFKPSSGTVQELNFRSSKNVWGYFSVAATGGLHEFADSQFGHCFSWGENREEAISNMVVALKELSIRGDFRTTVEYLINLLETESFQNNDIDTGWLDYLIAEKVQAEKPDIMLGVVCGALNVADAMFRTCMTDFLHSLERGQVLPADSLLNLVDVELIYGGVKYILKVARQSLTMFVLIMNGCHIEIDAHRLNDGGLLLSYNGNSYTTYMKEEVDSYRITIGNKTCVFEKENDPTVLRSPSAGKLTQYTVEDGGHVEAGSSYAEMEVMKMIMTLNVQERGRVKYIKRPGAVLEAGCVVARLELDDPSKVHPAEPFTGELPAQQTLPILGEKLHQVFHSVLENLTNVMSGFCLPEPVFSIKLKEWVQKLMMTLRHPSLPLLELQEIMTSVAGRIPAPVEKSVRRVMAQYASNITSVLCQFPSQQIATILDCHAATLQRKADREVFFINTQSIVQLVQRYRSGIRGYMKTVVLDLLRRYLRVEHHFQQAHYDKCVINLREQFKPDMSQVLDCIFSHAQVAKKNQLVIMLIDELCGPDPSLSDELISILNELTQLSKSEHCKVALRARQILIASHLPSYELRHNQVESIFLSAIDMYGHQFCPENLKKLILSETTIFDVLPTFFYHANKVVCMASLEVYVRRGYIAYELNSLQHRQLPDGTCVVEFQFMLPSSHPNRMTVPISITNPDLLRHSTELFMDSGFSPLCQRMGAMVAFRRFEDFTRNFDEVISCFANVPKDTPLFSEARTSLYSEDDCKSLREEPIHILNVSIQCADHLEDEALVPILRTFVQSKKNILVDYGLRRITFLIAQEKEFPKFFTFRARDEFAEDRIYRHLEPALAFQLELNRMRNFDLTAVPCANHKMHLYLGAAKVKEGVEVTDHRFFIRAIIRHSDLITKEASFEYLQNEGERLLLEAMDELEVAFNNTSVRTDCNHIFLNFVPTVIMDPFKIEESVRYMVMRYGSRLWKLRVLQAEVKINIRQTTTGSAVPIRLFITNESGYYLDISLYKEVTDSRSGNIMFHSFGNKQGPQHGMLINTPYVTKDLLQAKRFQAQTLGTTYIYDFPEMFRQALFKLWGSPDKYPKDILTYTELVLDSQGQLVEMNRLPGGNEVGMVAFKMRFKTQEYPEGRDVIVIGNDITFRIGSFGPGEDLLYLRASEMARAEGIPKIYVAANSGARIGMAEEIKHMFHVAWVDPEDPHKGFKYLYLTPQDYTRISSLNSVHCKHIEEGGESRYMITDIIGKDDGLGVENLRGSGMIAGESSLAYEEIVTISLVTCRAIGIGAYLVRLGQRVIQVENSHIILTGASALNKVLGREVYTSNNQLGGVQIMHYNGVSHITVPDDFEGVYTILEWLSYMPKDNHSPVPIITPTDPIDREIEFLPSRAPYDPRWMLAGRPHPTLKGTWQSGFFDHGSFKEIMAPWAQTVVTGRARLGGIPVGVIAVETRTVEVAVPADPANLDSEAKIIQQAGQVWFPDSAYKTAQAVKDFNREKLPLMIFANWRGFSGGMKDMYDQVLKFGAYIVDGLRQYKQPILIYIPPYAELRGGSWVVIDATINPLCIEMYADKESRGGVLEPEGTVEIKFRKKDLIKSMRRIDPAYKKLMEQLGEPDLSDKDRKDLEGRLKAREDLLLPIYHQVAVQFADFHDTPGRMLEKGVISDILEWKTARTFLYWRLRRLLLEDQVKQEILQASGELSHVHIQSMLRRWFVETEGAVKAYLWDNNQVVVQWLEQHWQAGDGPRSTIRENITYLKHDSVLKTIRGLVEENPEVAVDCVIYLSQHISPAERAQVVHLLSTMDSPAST
Structure (SMILES),IC50 (hACC2; Table 2a) [nM],IC50 (hACC2; Table 2b (additional results)) [nM],IC90 (Botrtyis cinerea (Bc); Table 4a) [µg/mL],IC90 (Botrtyis cinerea (Bc); Table 4b) [µg/mL],IC90 ([1]; Table 4a) [µg/mL],IC90 ([1]; Table 4b) [µg/mL],IC90 (Diplodia maydis (Dm); Table 4a) [µg/mL],IC90 (Diplodia maydis (Dm); Table 4b) [µg/mL],IC90 ([2]; Table 4a) [µg/mL],IC90 ([2]; Table 4b) [µg/mL],IC90 ([3]; Table 4a) [µg/mL],IC90 ([3]; Table 4b) [µg/mL],IC90 ([4]; Table 4a) [µg/mL],IC90 ([4]; Table 4b) [µg/mL],IC90 (Rhizoctonia solani (Rs); Table 4a) [µg/mL],IC90 (Rhizoctonia solani (Rs); Table 4b) [µg/mL],IC90 (Septoria tritici (St); Table 4a) [µg/mL],IC90 (Septoria tritici (St); Table 4b) [µg/mL]
"CCOC(=O)c1sc2c(c1C)c(=O)n(C(C)(C)C(=O)NC(C)C)c(=O)n2C[C@H](OC(C)C)c1ccccc1OC [Compound I-9, (R)-ethyl 1-(2-isopropoxy-2-(2-methoxyphenyl)ethyl)-3-(1-(isopropylamino)-2-methyl-1-oxopropan-2-yl)-5-methyl-2,4-dioxo-1,2,3,4-tetrahydrothieno[2,3-d]pyrimidine-6-carboxylate]",10 to 40,10 to 40,0.4,0.4,2,2,0.4,0.4,0.08,0.08,0.4,0.4,≥ 50,≥ 50,≥ 50,10,≥ 50,≥ 50
"CCOC(=O)c1sc2c(c1C)c(=O)n(C(C)(C)C(=O)NC(C)C)c(=O)n2C[C@H](OCC(C)(C)C#N)c1ccccc1OC [Compound I-38, ethyl (R)-1-(2-(2-cyano-2-methylpropoxy)-2-(2-methoxyphenyl)ethyl)-3-(1-(isopropylamino)-2-methyl-1-oxopropan-2-yl)-5-methyl-2,4-dioxo-1,2,3,4-tetrahydrothieno[2,3-d]pyrimidine-6-carboxylate]",–,10 to 40,–,0.4,–,2,–,2,–,0.08,–,2,–,≥ 50,–,2,–,≥ 50
"CCOC(=O)c1sc2c(c1C)c(=O)n(C(C)(C)C(=O)N1CCCC1)c(=O)n2C[C@H](OC(C)C)c1ccccc1OC [Compound I-7, (R)-ethyl 1-(2-isopropoxy-2-(2-methoxyphenyl)ethyl)-5-methyl-3-(2-methyl-1-oxo-1-(pyrrolidin-1-yl)propan-2-yl)-2,4-dioxo-1,2,3,4-tetrahydrothieno[2,3-d]pyrimidine-6-carboxylate]",10 to 40,10 to 40,0.4,0.4,0.4,0.4,0.4,0.4,0.08,0.08,0.4,0.4,≥ 50,≥ 50,0.08,0.08,10,2
"CCOC(=O)c1sc2c(c1C)c(=O)n(C(C)(C)C(=O)NC(C)C)c(=O)n2C[C@H](OC1CCOCC1)c1ccccc1OC [Compound I-8, (R)-ethyl 3-(1-(isopropylamino)-2-methyl-1-oxopropan-2-yl)-1-(2-(2-methoxyphenyl)-2-((tetrahydro-2H-pyran-4-yl)oxy)ethyl)-5-methyl-2,4-dioxo-1,2,3,4-tetrahydrothieno[2,3-d]pyrimidine-6-carboxylate]",10 to 40,10 to 40,0.4,0.4,2,2,2,2,0.08,0.08,2,2,≥ 50,≥ 50,≥ 50,10,≥ 50,≥ 50
"CCOC(=O)c1sc2c(c1C)c(=O)n([C@@H](C)C(N)=O)c(=O)n2C[C@H](OCCC#N)c1cc(F)ccc1OC [Compound I-25, ethyl 3-((S)-1-amino-1-oxopropan-2-yl)-1-((R)-2-(2-cyanoethoxy)-2-(5-fluoro-2-methoxyphenyl)ethyl)-5-methyl-2,4-dioxo-1,2,3,4-tetrahydrothieno[2,3-d]pyrimidine-6-carboxylate]",–,3 to 10,–,≥ 50,–,≥ 50,–,≥ 50,–,10,–,≥ 50,–,≥ 50,–,0.4,–,≥ 50
"CCOC(=O)c1sc2c(c1C)c(=O)n(C(C)(C)C(=O)NC(C)C)c(=O)n2C[C@H](OCCC#N)c1ccccc1OC [Compound I-31, ethyl (R)-1-(2-(2-cyanoethoxy)-2-(2-methoxyphenyl)ethyl)-3-(1-(isopropylamino)-2-methyl-1-oxopropan-2-yl)-5-methyl-2,4-dioxo-1,2,3,4-tetrahydrothieno[2,3-d]pyrimidine-6-carboxylate]",–,3 to 10,–,0.4,–,0.4,–,0.4,–,0.08,–,0.4,–,2,–,2,–,10
"CCOC(=O)c1sc2c(c1C)c(=O)n([C@H](C)C(N)=O)c(=O)n2C[C@H](OCCC#N)c1cc(F)ccc1OC [Compound I-26, ethyl 3-((R)-1-amino-1-oxopropan-2-yl)-1-((R)-2-(2-cyanoethoxy)-2-(5-fluoro-2-methoxyphenyl)ethyl)-5-methyl-2,4-dioxo-1,2,3,4-tetrahydrothieno[2,3-d]pyrimidine-6-carboxylate]",–,3 to 10,–,10,–,≥ 50,–,≥ 50,–,10,–,≥ 50,–,≥ 50,–,2,–,≥ 50

# Source: patent US11098055B2, “Ester ACC inhibitors and uses thereof” (Gilead Apollo, LLC, priority 2015, dated 2021)
